In PMC5729604, “Dual inhibitors of hepatitis C virus and hepatocellular carcinoma: design, synthesis and docking studies” (Future Science OA, 2017):
≈ marks a conversion by molar mass, not a printed value. Where two headings read alike, the source gives them in different places.

Experiments:
[1] = system: human HCC cell line HepG2; assay: cells; type: cell-based; conditions: for IC50: Homo sapiens, HepG2, 72 h, neutral red; for IC50 / (LD0) HepG2 / Safe doses (100% viability of HepG2) LD0: 72 h; for in vitro anticancer activity against HepG2, in words: IC50 <100 μg/ml potential, 100-1000 μg/ml moderate; for (LD0) HepG2 / Safe doses (100% viability of HepG2) LD0: human
Experimental: The safe compounds on RBCs (5a-g, 5i-l, 5p-r, 5v-w, 6b-g) were screened for their potential anticancer activity against human HCC cell line HepG2. HepG2 cells were exposed to the test compounds, then viability of cells was measured using neutral red uptake assay as described by Borenfreund and Puerner. This assay depends on the fact that neutral red dye can be incorporated into the lysosomes of living cells providing a quantitative assay to the cytotoxic effects. The results were interpreted to calculate both the concentration causing 50% cancer cell death (IC50) of each compound and the maximum safe concentration that cause 100% viability (LD0; to be used in the in vitro anti-HCV testing) using GraphPad InStat 3.0 software (Figure 5 & Supplementary Table 2).
HepG2 cells were routinely maintained as adherent cell cultures in RPMI-1640 medium (Lonza Group Ltd, Basel, Switzerland) supplemented with 10% fetal bovine serum (FBS; Lonza, IL, USA) at 37°C in a humidified air incubator containing 5% CO2. Cells were subcultured for 2 weeks before assay. Cell viability was assessed using trypan blue exclusion method.
HepG2 cells were washed twice in RPMI-1640 medium supplemented with 200 μM L-glutamine (Lonza) and […] 4-(2-hydroxyethyl)-1-piperazineethanesulfonic acid (HEPES) buffer (Lonza). The cells were suspended at 3 × 10^4 cells/ml in RPMI culture medium (RPMI supplemented medium and 10% FBS). The appropriate number of cells was chosen to be 3 × 10^3 cells/well (100 μl of the prepared suspension), and the cells were left to adhere on the polystyrene 96-well plates in an incubator at 37°C, 5% CO2 and 95% humidity for 24 h. The cells were washed once using RPMI supplemented medium.
A 2 mg/ml stock solution of each compound was prepared in DMF and filtered using a 0.2 μM syringe filter. The desired concentrations (20, 10, 5, 2.5 and 1.25 μg/ml) were prepared using serial dilution in a 96-well plate. Compound wells were prepared by adding 100 μl of the previously prepared concentrations to a 100 μl of HepG2 cells suspension. Parallel concentrations of the solvent were prepared to be used as controls. 5-Fluorouracil was used as a positive control. Control wells were prepared by adding 100 μl culture media to a 100 μl of HepG2 cells suspension. Blank wells contained 200 μl of culture media only (without cells or compound solution). Each set of samples was pipetted in duplicate. The plate was gently shaken, then incubated at 37°C, 5% CO2 for 72 h.
After incubation, the plate was centrifuged (2000 r.p.m. for 10 min). The media were discarded by inversion over paper towels. A working solution (100 μg/ml) of neutral red stain (Bio Basic Inc, Markham, Canada) was prepared, and 100 μl of this solution was added to each well, then the plate was gently shaken. The plate was incubated at 37°C in humidified 5% CO2 for 3 h, and then centrifuged (2000 r.p.m. for 10 min). Excess dyes were discarded, and the cells were fixed with 100 μl fixing solution (0.5% formalin with 1% calcium chloride [Sigma-Aldrich]) for 1 min. Cells were destained in 100 μl destaining solution (50% ethanol with 1% glacial acetic acid [Sigma-Aldrich]) for 5 min by shaking. The stain intensity was assayed using automated microplate reader spectrophotometer adjusted at 490 nm. Surviving cell fraction was calculated according to the following equation: [drawing 3]
The results were interpreted to calculate both the concentration causing 50% cancer cell death (IC50) of each compound and the maximum safe concentration that cause 100% viability (LD0; to be used in the in vitro anti-HCV testing) using GraphPad InStat 3.0 software.

[2] = system: human peripheral blood mononuclear cells (PBMCs); type: cell-based; conditions: 72 h
Experimental: The safe compounds on RBCs (5a-g, 5i-l, 5p-r, 5v-w, 6b-g) were subjected to the in vitro cytotoxicity assay on human peripheral blood mononuclear cells (PBMCs). Viability of cells was measured using neutral red uptake assay as described by Borenfreund and Puerner to determine the concentrations of each compound that were not cytotoxic. The results were interpreted to calculate both the lethal concentration that kills 50% of cells (LD50) and the maximum safe concentration that causes 100% viability (LD0) of each compound using GraphPad InStat 3.0 software (Figure 6 & Supplementary Table 3).
The PBMCs were isolated by density gradient centrifugation technique as described by Boyum. Blood samples were freshly collected into heparinized or ethylenediaminetetraacetic acid sterile tubes. Blood was diluted using equal volume of RPMI-1640 medium containing 25 mM HEPES and then layered over equal volume of Ficoll-Pague™ Plus (Fisher BioReagents™ Lymphocyte Separation Medium-LSM, PA, USA) and centrifuged (2000 r.p.m. for 30 min at acceleration and deceleration speeds zero & zero) at room temperature. The buffy mononuclear cell layer was collected using sterile Pasteur pipette into 50 ml sterile Falcon tube and washed twice in phosphate-buffered saline (Sigma-Aldrich) using centrifugation (1650 r.p.m. for 5 min). The isolated PBMCs viability was determined by hemocytometer count using the trypan blue exclusion method. The PBMCs were resuspended at 1 × 10^6 cells/ml in RPMI-1640 medium containing 25 mM HEPES supplemented with 10% heat-inactivated FBS. The appropriate number of cells was chosen to be 1 × 10^5 cells/well (100 μl of the prepared suspension).
A 2 mg/ml stock solution of each compound was prepared in DMF and filtered using a 0.2 μM syringe filter. The desired concentrations (20, 10, 5, 2.5 and 1.25 μg/ml) were prepared using serial dilution in a 96-well plate. Compound wells were prepared by adding 100 μl of the previously prepared concentrations to a suspension of 1 × 10^5 PBMCs in 100 μl culture media. Parallel concentrations of the solvent were prepared to be used as controls. Control wells were prepared by adding 100 μl culture media to a suspension of 1 × 10^5 PBMCs in 100 μl culture media. Blank wells contained 200 μl of culture media only (without cells or compound solution). Each set of samples was pipetted in duplicate. The plate was then gently shaken then incubated at 37°C, 5% CO2 for 72 h.
After incubation, neutral red assay was performed as described previously, and surviving cell fraction was calculated according to the previously mentioned equation. Also, the results were interpreted to calculate both the lethal concentration that kills 50% of cells (LD50) and the maximum safe concentration that cause 100% viability (LD0) of each compound using GraphPad InStat 3.0 software.

[3] = Supplementary Table 2, read-out: Anticancer (HepG2) IC50
[4] = Table 1, read-out: IC50 (HepG2)
[5] = read-out: IC50 against HepG2 cells

Row | Compound | IC50 [1, 3] | in vitro anticancer activity against HepG2, in words [1] | (LD0) HepG2 [1] | Safe doses (100% viability of HepG2) LD0 [1] | (LD0) PBMCs [2] | LD0 [2] | LD50 [2] | IC50 [1, 4] | IC50 [1, 5] | Selectivity index ([1]; LD50 on PBMC / IC50 on HepG2) | LD50 (PBMCs) [2] | Selectivity index ([1]; LD50 on normal cells / IC50 on cancer cells, larger than three = highly selective)
1 | CC(=NN=C1SC(=Cc2cn(-c3ccccc3)nc2-c2ccccc2)C(=O)N1c1ccc(Cl)cc1)c1cc2ccccc2o1 [Compound 5d, 2-[1-(Benzofuran-2-yl)ethylidenehydrazono]-5-[(1,3-Diphenyl-1H-pyrazol-4-yl)methylene]-3-(4-chlorophenyl)thiazolidin-4-one] | 1140 µg/mL (≈ 1850 µM) | very weak anticancer activity | 163.55 µg/mL | 163.55 µg/mL | 11.43 µg/mL | 11.43 µg/mL | 160.43 µg/mL | – | – | – | – | –
2 | CC(=NN=C1SC(=C2C(=O)Nc3ccccc32)C(=O)N1c1ccc(Cl)cc1)c1cc2ccccc2o1 [Compound 6b, 2-[1-(Benzofuran-2-yl)ethylidenehydrazono]-5-(2-oxoindolin-3-ylidene)-3-(4-chlorophenyl)thiazolidin-4-one] | 354 µg/mL (≈ 689 µM) | – | 11.07 µg/mL | 11.07 µg/mL | 18.18 µg/mL | 18.18 µg/mL | 61.46 µg/mL | – | – | – | – | –
3 | CC(=NN=C1SC(=Cc2cn(-c3ccccc3)nc2-c2ccc(Cl)cc2)C(=O)N1C1CCCCC1)c1nc2ccccc2[nH]1 [Compound 5w, 2-[1-(1H-Benzimidazole-2-yl)ethylidenehydrazono]-5-{[3-(4-chlorophenyl)-1-phenyl-1H-pyrazol-4-yl]methylene}-3-cyclohexylthiazolidin-4-one] | 1100 µg/mL (≈ 1770 µM) | very weak anticancer activity | 92.40 µg/mL | 92.40 µg/mL | 16.03 µg/mL | 16.03 µg/mL | 36.28 µg/mL | – | – | – | – | –
4 | CC(=NN=C1SC(=Cc2cn(-c3ccccc3)nc2-c2ccccc2)C(=O)N1c1ccc(Cl)cc1)c1nc2ccccc2[nH]1 [Compound 5p, 2-[1-(1H-Benzimidazole-2-yl)ethylidenehydrazono]-5-[(1,3-Diphenyl-1H-pyrazol-4-yl)methylene]-3-(4-chlorophenyl)thiazolidin-4-one] | – | potential in vitro anticancer activity | 13.32 µg/mL | 13.22 µg/mL | 12.67 µg/mL | 12.67 µg/mL | 120.46 µg/mL | 46.5 µg/mL (≈ 75.7 µM) | < 50 µg/mL | 2.58 | 120.46 µg/mL | –
5 | COc1ccc(N2C(=O)C(=C3C(=O)Nc4ccccc43)SC2=NN=C(C)c2nc3ccccc3[nH]2)cc1 [Compound 6g, 2-[1-(1H-Benzimidazole-2-yl)ethylidenehydrazono]-5-(2-oxoindolin-3-ylidene)-3-(4-methoxyphenyl)thiazolidin-4-one] | 248 µg/mL (≈ 487 µM) | – | 18.62 µg/mL | 18.62 µg/mL | 14.41 µg/mL | 14.41 µg/mL | 136.76 µg/mL | – | – | – | – | –
6 | COc1ccc(-c2nn(-c3ccccc3)cc2C=C2SC(=NN=C(C)c3cc4ccccc4o3)N(c3ccccc3)C2=O)cc1 [Compound 5c, 2-[1-(Benzofuran-2-yl)ethylidenehydrazono]-5-{[3-(4-methoxyphenyl)-1-phenyl-1H-pyrazol-4-yl]methylene}-3-phenylthiazolidin-4-one] | 143 µg/mL (≈ 235 µM) | – | 5.88 µg/mL | 5.88 µg/mL | 32.45 µg/mL | 32.45 µg/mL | 139.19 µg/mL | – | – | – | – | –
7 | CC(=NN=C1SC(=Cc2cn(-c3ccccc3)nc2-c2ccc(Cl)cc2)C(=O)N1c1ccc(Cl)cc1)c1cc2ccccc2o1 [Compound 5e, 2-[1-(Benzofuran-2-yl)ethylidenehydrazono]-5-{[3-(4-chlorophenyl)-1-phenyl-1H-pyrazol-4-yl]methylene}-3-(4-chlorophenyl)thiazolidin-4-one] | 318 µg/mL (≈ 490 µM) | – | 31.12 µg/mL | 31.12 µg/mL | 4.26 µg/mL | 4.26 µg/mL | 117.12 µg/mL | – | – | – | – | –
8 | CC(=NN=C1SC(=Cc2cn(-c3ccccc3)nc2-c2ccc(Cl)cc2)C(=O)N1C1CCCCC1)c1cc2ccccc2o1 [Compound 5k, 2-[1-(Benzofuran-2-yl)ethylidenehydrazono]-5-{[3-(4-chlorophenyl)-1-phenyl-1H-pyrazol-4-yl]methylene}-3-cyclohexylthiazolidin-4-one] | 150 µg/mL (≈ 242 µM) | – | 56.74 µg/mL | 56.74 µg/mL | 33.29 µg/mL | 33.29 µg/mL | 319.64 µg/mL | – | – | – | – | –
9 | COc1ccc(-c2nn(-c3ccccc3)cc2C=C2SC(=NN=C(C)c3nc4ccccc4[nH]3)N(c3ccc(Cl)cc3)C2=O)cc1 [Compound 5r, 2-[1-(1H-Benzimidazole-2-yl)ethylidenehydrazono]-5-{[3-(4-methoxyphenyl)-1-phenyl-1H-pyrazol-4-yl]methylene}-3-(4-chlorophenyl)thiazolidin-4-one] | – | potential in vitro anticancer activity | 0.18 µg/mL | 0.181 µg/mL | 7.33 µg/mL | 7.33 µg/mL | 44.00 µg/mL | 11 µg/mL (≈ 17.1 µM) | < 50 µg/mL | 3.99 | 44.00 µg/mL | larger than three
